{"source": "patent US20250009900A1", "about": "“OXAZAPHOSPHORINE ANTIBODY DRUG CONJUGATES AND METHODS OF USE” (LA Life Products, LLC, priority 2023, published 2025)", "origin": "cited, not measured here", "conditions": "combination with ipilimumab (anti-CTLA-4), in the clinic; cited from earlier work", "data": [{"compound": "Cn1c(COP(=O)(NCCBr)NCCBr)cnc1[N+](=O)[O-]", "note": "[evofosfamide]", "values": [{"measurement": "good clinical activity (patients)", "result": "15 of 22"}]}]}
